Data as given in the CheMixHub ionic liquid set.

Experiment: xn = mol fraction of the nth substance listed

CCC1COC(=O)O1 (stereo not given) + O=S(=O)([N-]S(=O)(=O)C(F)(F)F)C(F)(F)F.[Li+]
298.1 K, 100 kPa, x2 = 0.333
Conditions	electrical conductivity [S/m]	viscosity [mPa·s]
–	0.02	323

O + CCCC[n+]1ccc(C)cc1.[Br-]
100 kPa, frequency 0.003 MHz, x2 = 0
Conditions	electrical conductivity [S/m]
288.15 K	0.0001
308.15 K	0.00022

CCC[N+]1(C)CCCC1.O=S(=O)([N-]S(=O)(=O)C(F)(F)F)C(F)(F)F + CCCCCCCCCCCCCC[P+](CCCCCC)(CCCCCC)CCCCCC.O=S(=O)([N-]S(=O)(=O)C(F)(F)F)C(F)(F)F
313.15 K, 101 kPa, x2 = 0.75
Conditions	electrical conductivity [S/m]	viscosity [mPa·s]
–	0.0308	135

CN(CCO)CCO + CCCCCC[n+]1ccn(C)c1.O=S(=O)([N-]S(=O)(=O)C(F)(F)F)C(F)(F)F
101 kPa, x1 = 1
Conditions	viscosity [mPa·s]
303.15 K	59.8
313.15 K	37.9
318.15 K	29.8

CCCCCCCCn1cc[n+](C)c1.O=S(=O)([N-]S(=O)(=O)C(F)(F)F)C(F)(F)F + CN(C)C=O
viscosity [mPa·s], 101 kPa
Conditions	293.15 K	303.15 K	313.15 K	323.15 K	333.15 K	343.15 K	353.15 K	363.15 K
x1 = 0.001926	0.959	0.858	0.771	0.702	0.641	0.59	0.543	0.502
x1 = 0.003917	0.982	0.876	0.787	0.715	0.653	0.598	0.552	0.51
x1 = 0.007695	1.019	0.907	0.818	0.738	0.672	0.617	0.568	0.524
x1 = 0.01197	1.059	0.942	0.85	0.762	0.694	0.635	0.584	0.539
x1 = 0.01518	1.096	0.971	0.877	0.784	0.713	0.653	0.598	0.552
x1 = 0.0193	1.136	1.006	0.909	0.81	0.734	0.669	0.614	0.579

O + CCCCCCCCCCCCCC[n+]1ccccc1.O=C([O-])C(O)c1ccccc1 + NCC(=O)O
101 kPa, x2 = 0, x3 = 0
Conditions	electrical conductivity [S/m]
293.15 K	0.00012
298.15 K	0.00015
303.15 K	0.00016
308.15 K	0.00017
313.15 K	0.00019

CCCCOCCO + CCCC[n+]1ccn(C)c1.[Br-]
100 kPa, x2 = 0
Conditions	viscosity [mPa·s]
298.15 K	2.79
303.15 K	2.44
308.15 K	2.22
313.15 K	1.98

O + CCCCCCCCCCCCCCCC[n+]1ccccc1.O=C([O-])C(O)c1ccccc1 + C[C@H](N)C(=O)O
101 kPa, x2 = 0, x3 = 0
Conditions	electrical conductivity [S/m]
293.15 K	0.00012
298.15 K	0.00015
303.15 K	0.00016
308.15 K	0.00017
313.15 K	0.00019

CCC[N+]1(C)CCCC1.O=S(=O)([N-]S(=O)(=O)C(F)(F)F)C(F)(F)F + CC[n+]1ccn(C)c1.O=S(=O)([N-]S(=O)(=O)C(F)(F)F)C(F)(F)F
101 kPa
Conditions	electrical conductivity, 293.15 K [S/m]	electrical conductivity, 333.15 K [S/m]	electrical conductivity, 353.15 K [S/m]	viscosity, 293.15 K [mPa·s]	viscosity, 333.15 K [mPa·s]	viscosity, 353.15 K [mPa·s]
x2 = 0	–	1.18	1.76	–	18.8	11.6
x2 = 0.5	0.528	–	–	53.4	–	–

CC1CC(=O)O1 (stereo not given) + CCCC[n+]1ccn(C)c1.O=S(=O)([N-]S(=O)(=O)C(F)(F)F)C(F)(F)F
electrical conductivity [S/m], 100 kPa, frequency 0.01 MHz
Conditions	293.15 K	298.15 K	303.15 K	308.15 K	313.15 K	318.15 K	323.15 K
x2 = 0.0493	0.874	0.942	1.02	1.1	1.2	1.29	1.38
x2 = 0.1001	1.1	1.22	1.34	1.48	1.62	1.74	1.89
x2 = 0.1526	1.21	1.34	1.49	1.64	1.8	1.94	2.12
x2 = 0.2001	1.2	1.32	1.47	1.62	1.79	1.97	2.16
x2 = 0.3001	1.02	1.15	1.28	1.42	1.58	1.76	1.96
x2 = 0.4013	0.782	0.883	1	1.13	1.26	1.43	1.61
x2 = 0.5004	0.619	0.701	0.804	0.91	1.02	1.16	1.3
x2 = 0.5995	0.505	0.58	0.67	0.754	0.857	0.976	1.1
x2 = 0.6929	0.437	0.504	0.584	0.665	0.758	0.865	0.992
x2 = 0.814	0.39	0.451	0.521	0.592	0.677	0.775	0.886
x2 = 0.9001	0.353	0.417	0.484	0.557	0.645	0.74	0.837

CCCCn1cc[n+](CCOCCOCC[n+]2ccn(CCCC)c2)c1.N#C[N-]C#N.N#C[N-]C#N + CC[n+]1ccn(C)c1.N#C[N-]C#N + O=S(=O)([N-]S(=O)(=O)C(F)(F)F)C(F)(F)F.[Li+]
100 kPa, x1 = 0.2388, x2 = 0.6693
Conditions	electrical conductivity [S/m]
298 K	0.505
303 K	0.581
313 K	0.847
323 K	1.23
333 K	1.53
343 K	1.85
